Test results reported in ChEMBL document CHEMBL1144957, “Highly cytotoxic benzo[c]pyrido[2,3,4-kl]acridines” (Bioorg Med Chem Lett, 2003).

Assays:
PC-3 = assay: In vitro inhibitory concentration against human prostate carcinoma PC-3 cell line using MTT assay after incubation for 72 h; assay type: functional, cell-based; conditions: PC-3, 72 h
Calf thymus DNA [1] = assay: Apparent calf thymus DNA-binding constant; assay type: nucleic-acid assay; conditions: Bos taurus
Nucleic Acid = assay: Binding to DNA as change in thermal denaturation temperature of poly(dAT)2 DNA; assay type: nucleic-acid assay
Calf thymus DNA [2] = assay: Apparent Calf thymus DNA DNA-binding constant; assay type: nucleic-acid assay; conditions: Bos taurus

Structure (SMILES) | IC50 (PC-3) | K app (Calf thymus DNA [1]) | ΔTm (Nucleic Acid) | K app (Calf thymus DNA [2])
COc1cc2nc3c(c4c2c(c1OC)NCC4)CCc1cc(OCCCN)ccc1-3 | > 1000 nM | 6.86e+06 M⁻¹ | 11.9 °C | –
COc1cc2nc3c(c4c2c(c1OC)NCC4)CCc1cc(O)ccc1-3 | > 1000 nM | 1600 M⁻¹ | 1.1 °C | –
COc1cc2nc3c(c4c2c(c1OC)N(C(C)=O)CC4)CCc1cc(OCCCN2CCN(C)CC2)ccc1-3 | 11.2 nM | – | 0.9 °C | 2800 M⁻¹
COc1cc2nc3c(c4c2c(c1OC)NCC4)CCc1ccccc1-3 | > 1000 nM | 3600 M⁻¹ | 0 °C | –
COc1cc2nc3c(c4c2c(c1OC)NCC4)CCc1cc(OCCN)ccc1-3 | > 1000 nM | 2.01e+06 M⁻¹ | 12.1 °C | –
COc1cc2nc3c(c4c2c(c1OC)N(C(=O)CN1CCN(C)CC1)CC4)CCc1cc(OCCCN2CCN(C)CC2)ccc1-3 | > 1000 nM | 3.04e+06 M⁻¹ | 0.9 °C | –
COc1cc2nc3c(c4c2c(c1OC)N(C(=O)CN1CCN(C)CC1)CC4)CCc1cc(OCCCN)ccc1-3 | 5.1 nM | 6.66e+06 M⁻¹ | 11.9 °C | –
COc1ccc2c(c1)CCc1c-2nc2cc(OC)c(OC)c3c2c1CCN3 | > 1000 nM | 3000 M⁻¹ | 0 °C | –
COc1cc2nc3c(c4c2c(c1OC)N(C(=O)CN1CCN(C)CC1)CC4)CCc1ccccc1-3 | > 1000 nM | < 50000 M⁻¹ | 0 °C | –
COc1cc2nc3c(c4c2c(c1OC)N(C(=O)CN1CCN(C)CC1)CC4)CCc1cc(OCCN)ccc1-3 | > 1000 nM | 4.51e+06 M⁻¹ | 11.9 °C | –
COc1cc2nc3c(c4c2c(c1OC)NCC4)CCc1cc(OCCCN2CCN(C)CC2)ccc1-3 | 19.9 nM | 4.98e+06 M⁻¹ | 7.5 °C | –
COc1ccc2c(c1)CCc1c-2nc2cc(OC)c(OC)c3c2c1CCN3C(=O)CN1CCN(C)CC1 | > 1000 nM | < 50000 M⁻¹ | 0.9 °C | –

The next lines start with the values.

IC50 (PC-3) | K app (Calf thymus DNA [1]) | ΔTm (Nucleic Acid) | K app (Calf thymus DNA [2]) | Structure (SMILES)
> 1000 nM | – | – | – | COc1cc2nc3c(c4c2c(c1OC)N(C(C)=O)CC4)CCc1cc(O)ccc1-3
> 1000 nM | 2400 M⁻¹ | 0 °C | – | COc1ccc2c(c1)-c1nc3cc(OC)c(OC)c4c3c(c1CC2)CCN4
> 1000 nM | < 50000 M⁻¹ | 0.9 °C | – | COc1ccc2c(c1)-c1nc3cc(OC)c(OC)c4c3c(c1CC2)CCN4C(=O)CN1CCN(C)CC1
> 1000 nM | – | – | – | COc1ccc2c(c1)-c1nc3cc(OC)c(OC)c4c3c(c1CC2)CCN4C(C)=O
> 1000 nM | – | – | – | COc1ccc2c(c1)CCc1c-2nc2cc(OC)c(OC)c3c2c1CCN3C(C)=O
> 1000 nM | 6300 M⁻¹ | 3.1 °C | – | COc1cc2nc3c(c4c2c(c1OC)N(C(C)=O)CC4)CCc1cc(OCCCN)ccc1-3
> 1000 nM | 4200 M⁻¹ | 2.1 °C | – | COc1cc2nc3c(c4c2c(c1OC)N(C(C)=O)CC4)CCc1cc(OCCN)ccc1-3
> 1000 nM | – | – | – | COc1cc2nc3c(c4c2c(c1OC)N(C(C)=O)CC4)CCc1ccccc1-3
